Like-named read-outs stand apart in the source and are kept apart here.
Tests used:
[1] = type: physicochemical
Description: Hereinafter, unless specified otherwise the solubility of material is determined in reverse osmosis (RO) water at room temperature. Where the solubility is expressed as “%” it to be understood as number of grams of material soluble in 100 grams of solvent.
The temperature was increased at 1° C. per minute to 121° C. The mixture was maintained at 121° C. for 1 hour and then the temperature was decreased to 80° C., at 1° C. per minute, and the obtained solution was spray dried using YC-015 laboratory spray drier (Shanghai Pilotech Instrument & Equipment Co. Ltd., China) operating at 175° C. inlet and 100° C. outlet temperature. Solution was maintained at 80° C. to prevent premature crystallization.
Solubility were evaluated for Reb A, Reb B, mechanical blends of Reb A and Reb B powders of different ratios, and mixtures of Reb A and Reb B prepared according to process described in EXAMPLE 1.

[2] = Sweetness factor (SF) determination by trained panel in water; conditions: for Calculated SF (sweetness factor) / Usage Level, % (concentration corresponding to 5% sucrose equivalent sweetness): in water, 5% SE
Description: The sweetness factors for different sweetener from all major groups were measured by tasting several concentrations of each sweetener in water by trained panel. From the sensory test at a, the concentration (%) that corresponds to the 5% sucrose equivalent (SE) sweetness were estimated and listed in Table 2. The sweetness equivalent (SE) of high intensity sweeteners (HIS) varies according to the target sugar equivalent sweetness levels, that are tested as shown in Table 3.

[3] = Sugar equivalent sweetness of sweetener/Reb B combinations in plain water, trained panel; conditions: Reb B at 50, 150 and 300 ppm with sweeteners of Table 2
Description: In one embodiment, Reb B was combined (at 50, 150 and 300 ppm) with several sweeteners listed in Table 2 to make solutions in plain water. Some of the sweeteners were tested at two different concentrations to obtain around 2% sugar equivalent sweetness without any Reb B. A trained panel conducted sensory tests to determine the effect of the addition of different amounts of Reb B to each sweetener on overall sweetness quality and intensity as shown in Table 4.

[4] = Descriptive sensory evaluation of sweetener solutions in water by trained panel
Description: In another embodiment, Stevia sweetener (Reb A, Reb B or blends thereof) solutions were made by completely dissolving Stevia into distilled water. Solutions were tasted and evaluated by a trained panel. […] All solutions were made with different mass ratio of Reb A and Reb Bas shown in FIG. 3 to get the 7% sweetness equivalent. Reb B a mount varied between 20 mg/kg to 150 mg/kg.
All sensory attributes were rated by trained panelists on a scale of zero (0) to ten (10). Samples were presented in a randomized fashion and labeled with three-digit codes.
Sweet Onset—This attribute describes the time at which panelists perceived sweetness upon placing the sample in the mouth. A score of zero indicates immediate identification of sweetness, whereas a score of ten indicates a long delay in the time that sweetness was perceived.
Total Sweetness—This attribute describes the highest intensity of sweetness perceived during tasting. A score of zero indicates no sweetness, while a score of ten indicates very high sweetness.
Bitterness—This attribute describes the highest intensity of bitterness perceived during tasting. A score of zero indicates no bitterness, while a score of ten indicates very high bitterness.
Rounded Sweetness—This attribute describes the duration of sweetness while samples are in the mouth.
Flavor Intensity—This attribute describes the highest intensity of flavor perceived during tasting. A score of zero indicates no flavor, while a score of ten indicates very high flavor.
Astringency—This attribute describes the highest intensity of astringency perceived during tasting. A score of zero indicates no astringency, while a score of ten indicates very high astringency.
Mouth Coating—This attribute describes the highest intensity of sweetness coating perceived while samples are in the mouth.
Sweet Lingering—This attribute describes the highest intensity of sweetness perceived after the sample has been swallowed.
Bitter Lingering—This attribute describes the highest intensity of bitterness perceived after the sample has been swallowed.
Aftertaste Mouth Coating—This attribute describes the highest intensity of sweetness coating perceived after the sample has been swallowed.
Tartness—This attribute describes the highest intensity of tartness perceived during tasting. A score of zero indicates no tartness, while a score of ten indicates very high tartness.
Cooling Sensation—This attribute describes the highest intensity of cooling sensation perceived during tasting. A score of zero indicates no cooling sensation, while a score of ten indicates very high cooling sensation.
Water solution of mogroside (100 ppm) sweetener was tested against solutions made with mogroside (100 ppm)+Reb B (300 ppm) and mogroside (100 ppm)+Reb A/B (Example 3) blend (128 ppm) by a 13 members trained panel.
Water solution of sucralose (40 ppm) was tested against solutions made with sucralose (40 ppm)+Reb B (150 ppm) and sucralose (40 ppm)+Reb A/Reb B (Example 3) blend (68 ppm) by a 13 members trained panel.
Water solution of erythritol (5%) was tested against solutions made with erythritol (5%)+Reb B (50 ppm) and erythritol (5%)+Reb A/Reb B (Example 3) blend (22 ppm) by a 13 members trained panel.
Fructo-oligosaccharide or FOS solution (21%) was tested against solutions made with FOS (21%)+Reb B (150 ppm) and FOS (21%)+Reb A/Reb B (Example 3) blend (68 ppm) by a 13 members trained panel.

[5] = Descriptive sensory evaluation, lime-tequila margarita alcoholic beverage; conditions: FOS 21% + Reb B 150 ppm, about 10% alcohol
Description: The Fructo-oligosaccharide (FOS) sweetener and the steviol glycosides compositions (described in EXAMPLE 12) were used for making an alcoholic beverage—lime-tequila margarita drink using Margarita pre-mix from FIS (Flavor International Systems), recommended usage was 0.4%. Prepared Lime Tequila Margarita blank containing about 10% alcohol, no sugar added. To sweeten the beverage, used FOS (21%), FOS+Reb B (150 ppm), and FOS+Reb A/Reb B (68 ppm). Descriptive Sensory evaluation was conducted with 8-13 panelists.

[6] = Descriptive sensory evaluation, peppermint mouthwash, 8 panelists; conditions: Maltitol 6.44% + Reb B 50 or 150 ppm
Description: A commercial unsweetened (no sugar or sweetener) peppermint mouthwash product (Brand: The Natural Dentist) was used to determine the effect of Reb B with other sweetener, as example maltitol, a sugar alcohol on the sensory profile of mouthwash. Mouthwash samples were sweetened with Maltitol (6.44%), Maltitol+Reb B (50 ppm), Maltitol+Reb B (150 ppm). Descriptive sensory evaluation was conducted with 8 panelists. They evaluated several attributes including sweet onset, total sweetness, bitterness, rounded sweetness, flavor intensity, astringency, mouth coating, sweet lingering, bitter lingering, aftertaste mouth coating, tartness.

[7] = cited from earlier work
[8] = room temperature; reported values; cited from earlier work
[9] = Chang and Cook 1983; cited from earlier work
[10] = Trained panel evaluation, no fat (NF) yogurt; conditions: formulas of Table 6
Description: Samples were prepared according to formulas outlined below in Table 6. Samples included a full sugar reference, an aspartame reference, a Reb A control and several test samples with a Reb A/Reb B blends. The samples were evaluated by a trained panel and screened for overall sweetness, bitterness, astringency, mouth coating, flavor intensity, acidity/tartness, sweet lingering and bitter lingering.

[11] = Trained panel evaluation, chocolate milk; conditions: sugar-equivalent sweetness around 5.5%
Description: A series of samples were prepared to having sugar-equivalent sweetness around 5.5%. The control sample was sweetened with 5.5% sugar the test samples were sweetened with different ratios of Reb A/Reb as shown in Table 7 below. The samples were evaluated by a trained panel and screened for overall sweetness, bitterness, astringency, mouth coating, flavor intensity, acidity/tartness, sweet lingering and bitter lingering.

[12] = sensory evaluations, Crammer and Ikan 1986

Molecule: C=C1C[C@@]23CC[C@H]4[C@@](C)(CCC[C@@]4(C)C(=O)O)[C@@H]2CC[C@]1(O[C@@H]1O[C@H](CO)[C@@H](O)[C@H](O[C@@H]2O[C@H](CO)[C@@H](O)[C@H](O)[C@H]2O)[C@H]1O[C@@H]1O[C@H](CO)[C@@H](O)[C@H](O)[C@H]1O)C3 [Reb B, Rebaudioside B]
- Solubility in water [1]: No*
- Sweetness factor ([2]; SE level 5.0%): 126
- Sweetness factor ([2]; SE level 7.5%): 95
- Sweetness factor ([2]; SE level 10.0%): 59
- Sweetness factor ([2]; SE level […]): 146
- Calculated SF (sweetness factor) [2]: 126
- Usage Level, % (concentration corresponding to 5% sucrose equivalent sweetness) [2]: 0.0397%
- effect of addition of Reb B on overall sweetness quality and intensity [3]: generally increased upfront sweetness, made the sweetness profile rounded and contributed to sweetness lingering at a higher level
- sweetness and sweetness profile versus FOS solution ([4]; FOS 21% + Reb B 150 ppm or Reb A/Reb B 68 ppm): significantly higher sweetness and made the sweetness profile rounded
- onset of sweetness, peak sweetness and sweetness lingering versus erythritol solution ([4]; water, erythritol 5% + Reb B 50 ppm): improved the onset of sweetness and the peak sweetness without increasing the sweetness lingering
- taste (sweetness, bitterness, cooling effect) versus erythritol solution ([4]; water, erythritol 5% + Reb B 50 ppm or Reb A/Reb B 22 ppm): improved the taste of erythritol sample significantly by increasing the sweetness and reducing the bitterness and cooling effect
- taste attributes versus mogroside solution ([4]; water, mogroside 100 ppm + Reb B 300 ppm or Reb A/B 128 ppm): increases sweetness level significantly, improves the onset of sweetness and decreases the bitterness
- onset of sweetness and off taste versus sucralose solution ([4]; water, sucralose 40 ppm + Reb B 150 ppm): improved the onset of sweetness and decreased the off taste slightly
- sweetness level versus sucralose solution ([4]; water, sucralose 40 ppm + Reb B 150 ppm or Reb A/Reb B 68 ppm): significantly higher sweetness level
- flavor intensity, bitter lingering and tartness [5]: decrease in flavor intensity, bitter lingering, and tartness
- sweetness profile of the alcoholic beverage [5]: sweetness onset was earlier in the profile, and there was an increase in total sweetness and the sweetness profile was more rounded
- all other sensory attributes [6]: generally unchanged
- sweetness onset and total sweetness [6]: created an earlier sweetness onset, and higher total sweetness
- times sweeter than sucrose [7, 12]: 300-350 times
- water solubility [8]: about 0.1%

Molecule: Rebaudioside D [Reb D]
- water solubility [1]: 0.03%
- Calculated SF (sweetness factor) [2]: 291
- Usage Level, % (concentration corresponding to 5% sucrose equivalent sweetness) [2]: 0.0172%
- water solubility [8]: 0.01-0.05%

Molecule: C=C1C[C@@]23CC[C@H]4[C@@](C)(CCC[C@@]4(C)C(=O)O[C@@H]4O[C@H](CO)[C@@H](O)[C@H](O)[C@H]4O)[C@@H]2CC[C@]1(O[C@@H]1O[C@H](CO)[C@@H](O)[C@H](O)[C@H]1O[C@@H]1O[C@H](CO)[C@@H](O)[C@H](O)[C@H]1O)C3 [stevioside]
- times sweeter than sucrose ([7]; as usually found, literature): 110-270 times
- stability in carbonated beverages [9]: heat and pH stability

Molecule: C=C1C[C@@]23CC[C@H]4[C@@](C)(CCC[C@@]4(C)C(=O)O[C@@H]4O[C@H](CO)[C@@H](O)[C@H](O)[C@H]4O)[C@@H]2CC[C@]1(O[C@@H]1O[C@H](CO)[C@@H](O)[C@H](O[C@@H]2O[C@H](CO)[C@@H](O)[C@H](O)[C@H]2O)[C@H]1O[C@@H]1O[C@H](CO)[C@@H](O)[C@H](O)[C@H]1O)C3 [Reb A, Rebaudioside A]
- water solubility [1]: around 1%
- Sweetness factor ([2]; SE level 5.0%): 290
- Sweetness factor ([2]; SE level 7.5%): 250
- Sweetness factor ([2]; SE level 10.0%): 200
- Sweetness factor ([2]; SE level […]): 400
- Calculated SF (sweetness factor) [2]: 291
- Usage Level, % (concentration corresponding to 5% sucrose equivalent sweetness) [2]: 0.0172%
- acidity [10]: enhanced the acidity of the yogurt
- bitterness [10]: bitterness at the end
- sweetness and flavor profile [11]: separate peaks for sweetness, dairy notes, and cocoa notes
- sensory attributes among major steviol glycosides ([7]; Tanaka 1987, Phillips 1989): the least astringent, the least bitter, and the least persistent aftertaste
- times sweeter than sucrose [7, 12]: 350-450 times
- stability in carbonated beverages [9]: heat and pH stability
- water solubility [8]: 0.8%

— patent US12016355B2, “Stevia composition” (PURECIRCLE SDN BHD, priority 2011, dated 2024)
